Results from PubChem BioAssay (NCI).
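Exposure lasted 48 hours, with cells grown in 96-well plates and compounds tested at five concentrations. GI50 = concentration required for 50% inhibition of growth. Definition used: TGI = concentration required for complete inhibition of growth.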

Experiments:
Experiment in all cases: DTP human tumour cell line panel, 48 h
T-47D breast = test system: T-47D breast
DU-145 prostate = test system: DU-145 prostate
COLO 205 colon = test system: COLO 205 colon
PC-3 prostate = test system: PC-3 prostate
SNB-19 CNS = test system: SNB-19 CNS
HOP-62 NSCLC = test system: HOP-62 NSCLC
SF-539 CNS = test system: SF-539 CNS
OVCAR-3 ovarian = test system: OVCAR-3 ovarian
MOLT-4 leukemia = test system: MOLT-4 leukemia
OVCAR-4 ovarian = test system: OVCAR-4 ovarian

SMILES | TGI (T-47D breast) [µM] | TGI (DU-145 prostate) [µM] | TGI (COLO 205 colon) [µM] | TGI (PC-3 prostate) [µM] | TGI (SNB-19 CNS) [µM] | TGI (HOP-62 NSCLC) [µM] | TGI (SF-539 CNS) [µM] | TGI (OVCAR-3 ovarian) [µM] | TGI (MOLT-4 leukemia) [µM] | TGI (OVCAR-4 ovarian) [µM] | GI50 (DU-145 prostate) [nM] | GI50 (COLO 205 colon) [nM] | GI50 (PC-3 prostate) [nM] | GI50 (SNB-19 CNS) [µM] | GI50 (HOP-62 NSCLC) [nM] | GI50 (SF-539 CNS) [µM] | GI50 (OVCAR-3 ovarian) [nM] | GI50 (MOLT-4 leukemia) [nM] | GI50 (OVCAR-4 ovarian) [nM]
Cc1cccc(C(O)c2cccnc2)c1O (stereo not drawn) | > 100 | > 100 | > 100 | > 100 | > 100 | > 100 | > 100 | > 100 | > 100 |  |  |  |  |  |  |  |  |  | 
CCOC(=O)c1c(-c2ccc(OC)c(O)c2)c(C#N)c(=S)n(C2OC(CO)C(O)C(O)C2O)c1-c1ccccc1 (stereo not drawn) |  | > 100 | > 100 | > 100 | > 100 | > 100 |  |  | > 100 | > 100 |  |  |  |  |  |  |  |  | 
CC1(C)CC(=O)C(=CN2C(=O)CNC2=S)C(=O)C1 |  | > 100 | > 100 | > 100 | > 100 | > 100 | > 100 | > 100 | > 100 | > 100 |  |  |  |  |  |  |  |  | 
Cc1cc(C)c2c(c1)CC1(Cc3c(C)cc(C)cc3C1=O)C2=O (stereo not drawn) |  | > 100 | > 100 | > 100 | > 100 |  | > 100 | > 100 | > 100 | > 100 |  |  |  |  |  |  |  |  | 
C=C1CC(OC)(C(O)C(=O)N[C@H]2OCO[C@H]3C2O[C@H](C[C@H](O)COC)C(C)(C)C3OC)O[C@H](C)[C@@H]1C (stereo partly drawn) |  |  | > 0.00772 |  | > 0.00772 | > 0.00772 | > 0.00772 | > 0.00772 | > 0.00772 | > 0.00772 |  |  |  |  |  |  |  |  | 
O=C(Nc1nc(C23CC4CC(CC(C4)C2)C3)cs1)c1cc2cc([N+](=O)[O-])ccc2oc1=O |  | > 100 | > 100 | > 100 | > 100 | > 100 | > 100 | > 100 | > 100 | 44.8 |  |  |  |  |  |  |  |  | 
CC1(C)CC2(C)OC(=N)C1(C#N)C2(C#N)C#N (stereo not drawn) | 37.7 | 27.7 | 14.9 | 30.3 | 31 |  | 24.5 |  | 38.1 |  |  |  |  |  |  |  |  |  | 
Cc1ccc2c(=O)c(C(=O)N(CCO)CCO)c[nH]c2n1 | > 100 | > 100 | > 100 | > 100 | > 100 | > 100 |  | > 100 | > 100 | > 100 |  |  |  |  |  |  |  |  | 
C=C1C(=O)O[C@H]2C/C(C=O)=C\[C@H]3O[C@H]3/C(COC(=O)C(C)C)=C/CC12 (stereo partly drawn) | 7 | 25.2 | 5.91 | 8.59 | 35.4 | 26.5 | 47.3 | 19.3 | 10.6 |  |  |  |  |  |  |  |  |  | 
CC(=O)Nc1ccc(/C=C(\NC(=O)c2ccccc2)C(=O)NNS(=O)(=O)c2ccc(C)cc2)cc1 |  |  | 71.2 |  | > 100 | > 100 | > 100 | > 100 | > 100 | > 100 |  |  |  |  |  |  |  |  | 
CN(C)C=Nc1nncc2n[nH]nc12 | > 100 | > 100 | > 100 | > 100 | > 100 | > 100 | > 100 | > 100 | > 100 |  |  |  |  |  |  |  |  |  | 
O=C(NCc1ccccc1)c1c(O)c2ccccc2[nH]c1=O |  | > 100 | > 100 | > 100 | > 100 | > 100 | > 100 | > 100 | > 100 | > 100 |  |  |  |  |  |  |  |  | 
CCOC(=O)C[n+]1ccc2c([nH]c3cc(OC)ccc32)c1C |  |  | > 100 |  | > 100 | > 100 | > 100 | > 100 | > 100 | > 100 |  |  |  |  |  |  |  |  | 
COc1ccccc1N1C(=O)/C(=C\c2cccc(Oc3ccccc3)c2)S(=O)(=O)C1c1ccccc1 (stereo not drawn) | > 100 | > 100 | 88.3 | > 100 | > 100 | > 100 |  | > 100 | 32.8 | > 100 |  |  |  |  |  |  |  |  | 
CCOC(=O)N1C(=S)C(C(=O)OC)(C(=O)OC)N=C1C | > 100 | > 100 | > 100 | > 100 | > 100 | > 100 |  | > 100 | > 100 | > 100 |  |  |  |  |  |  |  |  | 
COc1ccc(N2C(=O)C(N3C(=O)C=CC3=O)C2C=O)cc1 (stereo not drawn) |  |  | > 100 |  | > 100 | > 100 | > 100 | > 100 |  |  |  |  |  |  |  |  |  |  | 
COc1ccc(NS(=O)c2cccc(C)c2)cc1 (stereo not drawn) |  | > 100 | > 100 | > 100 | > 100 | > 100 | 66.7 | > 100 | > 100 |  |  |  |  |  |  |  |  |  | 

SMILES | TGI (T-47D breast) [µM] | TGI (DU-145 prostate) [µM] | TGI (COLO 205 colon) [µM] | TGI (PC-3 prostate) [µM] | TGI (SNB-19 CNS) [µM] | TGI (HOP-62 NSCLC) [µM] | TGI (SF-539 CNS) [µM] | TGI (OVCAR-3 ovarian) [µM] | TGI (MOLT-4 leukemia) [µM] | TGI (OVCAR-4 ovarian) [µM] | GI50 (DU-145 prostate) [nM] | GI50 (COLO 205 colon) [nM] | GI50 (PC-3 prostate) [nM] | GI50 (SNB-19 CNS) [µM] | GI50 (HOP-62 NSCLC) [nM] | GI50 (SF-539 CNS) [µM] | GI50 (OVCAR-3 ovarian) [nM] | GI50 (MOLT-4 leukemia) [nM] | GI50 (OVCAR-4 ovarian) [nM]
CC(C)CC(NC(=O)C(COc1ccc([N+](=O)[O-])cc1)Cc1ccccc1)C(=O)Nc1ccccc1 (stereo not drawn) |  | > 100 | > 100 | > 100 | 20.2 |  | 18.9 | > 100 | > 100 | 8.33 |  |  |  |  |  |  |  |  | 
Cc1ccc2cnc(N)c(C#Cc3cncc(C(=O)Nc4ccc(CN5CCN(C)CC5)c(C(F)(F)F)c4)c3)c2c1 |  | 1.03 | 0.723 | 1.43 | 1.46 | 1.19 | 0.877 | 1.29 | 0.936 |  | 387 | 134 | 679 | 0.786 | 562 | 0.275 | 633 | 205 | 
O=C1OC2C=CC1C1(CCOC1=O)C2 (stereo not drawn) |  |  | > 100 |  | > 100 | > 100 | > 100 | > 100 | > 100 | > 100 |  |  |  |  |  |  |  |  | 
CC(=O)[C@H]1CCC2[C@@H]3CC=C4C(O)C(OS(=O)(=O)O)CC[C@]4(C)C3CC[C@@]21C (stereo partly drawn) |  |  | > 100 |  | > 100 | > 100 | > 100 | > 100 | > 100 | > 100 |  |  |  |  |  |  |  |  | 
CN(CCN(C)C(=O)CCn1ccc(=O)[nH]c1=O)C(=O)CCn1ccc(=O)[nH]c1=O |  |  | > 100 |  | > 100 | > 100 | > 100 | > 100 | > 100 | > 100 |  |  |  |  |  |  |  |  | 
O=C(C=P(c1ccccc1)(c1ccccc1)c1ccccc1)c1ccc(-c2ccc(F)cc2F)cc1 | 7.58 | 16.2 | 3.14 | 17.5 | 20.6 | 15.5 | 10.8 | 5.19 |  | 9.96 |  |  |  |  |  |  |  |  | 
CC1OC=CC(=O)C1O (stereo not drawn) |  |  |  |  |  | > 100 | > 100 | > 100 | > 100 | > 100 |  |  |  |  |  |  |  |  | 
O=c1/c(=C/c2ccc(-c3ccc(Cl)cc3Cl)o2)sc2n1[C@@H](c1ccc3c(c1)OCO3)C=C(c1cc(F)c(Cl)cc1Cl)N=2 | > 100 | > 100 | > 100 | > 100 | 95.4 | 28.9 | > 100 |  | > 100 | > 100 |  |  |  |  |  |  |  |  | 
O=C(O)CCCc1ccc2c(c1)CC1(C2)Cc2ccc(CCCC(=O)O)cc2C1 | > 100 |  | > 100 | > 100 |  | > 100 | > 100 | > 100 | > 100 | > 100 |  |  |  |  |  |  |  |  | 
NC1CCCCC1N.O=S(=O)([O-])CCCN1CCN(CCO)CC1.O=S(=O)([O-])CCCN1CCN(CCO)CC1.[Pt+4] |  |  | 19.6 |  | > 100 | > 100 | > 100 | > 36.4 | 20.6 | 19.2 |  | 1820 |  | 43.1 | > 20700 | 10.7 | 4440 | 587 | 1630
Cc1nn(-c2ccccn2)c2c1C(SC#N)=C(C=O)CC2 | 20.3 | 28.2 | 22.2 | 33.8 | 47.8 | 22.3 | 36.1 | 26.5 | 6.95 |  |  |  |  |  |  |  |  |  | 
Cc1nnc(CC#N)n1NC(=O)CC#N | > 100 | > 100 | > 100 | > 100 | > 100 | > 100 | > 100 | > 100 | > 100 |  |  |  |  |  |  |  |  |  | 
CCOC(=O)C1=C(C)N(c2ccc(C)cc2)C2(O)C=CC(=O)C3=C(O)c4ccccc4C(=O)C312 (stereo not drawn) |  | 55.7 | > 100 | > 100 | 80.2 | > 100 | 44.1 | > 100 | 1.26 | 90.9 |  |  |  |  |  |  |  |  | 
CC(=O)O[C@H]1C(=O)[C@@]2(C)C(C(OC(=O)c3ccccc3)[C@]3(O)CC(OC(=O)C(O)C(NC(=O)c4ccccc4)c4ccc(C)cc4)C(C)=C1C3(C)C)[C@]1(OC(C)=O)CO[C@@H]1C[C@@H]2O (stereo partly drawn) |  |  | 0.407 |  | 0.523 | 24.1 | 0.0652 |  | 5.82 | > 25 |  |  |  |  |  |  |  |  | 
Oc1ccc2ccccc2c1OCc1nnc(CCCCCCCCc2nnc(COc3c(O)ccc4ccccc34)o2)o1 |  | > 100 | > 100 | > 100 | > 100 |  |  |  | > 100 | > 100 |  |  |  |  |  |  |  |  | 
CC(C)c1nccn1Cc1ccc(Cl)cc1Cl |  | > 100 | > 100 | > 100 | > 100 | > 100 | > 100 | > 100 |  | > 100 |  |  |  |  |  |  |  |  | 
COC(=O)/C=C\C(C#N)(C#N)N=Cc1ccsc1 | 4.17 | 21.5 | 2.73 | 25.4 | 27.6 | 30.9 |  | 5.37 | 5 | 32.5 |  |  |  |  |  |  |  |  | 
